Experimental data: EP4640679A1, “SALT FORM AND CRYSTAL FORM OF PYRIDINE MULTI-SUBSTITUTED COMPOUND AND PREPARATION METHOD THEREFOR” (Usynova Pharmaceuticals Ltd., priority 2022, dated 2024)

Assays:
[1] = Pharmacokinetic study, oral administration, dog; type: in vivo; conditions: plasma, 25 mg/kg, 25 mpk
Experimental: (§1) The purpose of this experiment is to study the pharmacokinetics of the test substance in the plasma of male CD-1 mice, SD rats and […] after intravenous injection and oral administration.
(§2) The animals were randomly divided into two groups, with 2 males in each group. The compounds were formulated into the specified formulations (the vehicle was 5 mg/mL of 10% sulfobutyl ether-β-cyclodextrin), and the oral formulations were clear or homogeneous suspensions.
(§3) Whole blood samples were collected from the animals by jugular vein puncture or saphenous vein at 5, 15, 30 minutes, 1, 2, 4, 8, and 24 hours after administration. The whole blood samples were added into centrifuge tubes containing anticoagulants, and centrifuged at 3000g for 15 minutes at 4°C. The supernatant plasma was collected and quickly frozen on dry ice and then stored in a refrigerator at -70 ± 10°C until LC-MS/MS analysis.
(§4) The pharmacokinetic software WinNonlin™ Version 6.3.0 (Pharsight, Mountain View, CA) was used to process the plasma drug concentration data of the compound in a non-compartmental model. The peak concentration (Cmax) and time to peak (Tmax) as well as last measurable time point were directly obtained from the plasma drug concentration-time graph.
(§5) The following pharmacokinetic parameters were calculated using the log-linear trapezoidal method: plasma clearance rate (CL), volume of distribution (Vd), elimination phase half-life (T1/2), mean residence time of drug in vivo from 0 to the terminal time point (MRT0-last), mean residence time of drug in vivo from 0 to infinite time (MRT0-inf), area under the time-plasma concentration curve from 0 to the terminal time point (AUC0-last), area under the time-plasma concentration curve from 0 to infinite time (AUC0-inf), and bioavailability (F). The experimental results of the present disclosure are shown in Table 5: Table 5: Pharmacokinetic test results

[2] = Pharmacokinetic study, oral administration, rat; type: in vivo, SD rats; conditions: plasma, 30 mg/kg, 30 mpk
Experimental: as §1, §2, §3, §4, §5

[3] = Pharmacokinetic study, oral administration, mouse; type: in vivo, CD-1 mice; conditions: plasma, 10 mg/kg, 10 mpk
Experimental: as §1, §2, §3, §4, §5

[4] = target: T1, TYK2 protein (His-TVMV-TYK2 JH2 (575-869)) (Homo sapiens, UniProt P29597); assay: Tyk2 JH2 enzyme activity test (HTRF tracer displacement); type: binding
T1 construct: TYK2 protein (His-TVMV-TYK2 JH2 (575-869))
Experimental: To a buffer solution containing 20 mM of Hepes pH 7.5, 10 mM of MgCl2, 0.015% of Brij-35, 2 mM of DTT and 50 µg/ mL of BSA were added 0.5 nM of TYK2 protein (His-TVMV-TYK2 JH2 (575-869)), 0.2 nM of terbium-labeled His antibody, fluorescein-labeled kinase tracer at the relevant Kd value, and the test compound. The test system was incubated at room temperature for 90 minutes. Subsequently, the generated HTRF (homogeneous time-resolved fluorescence) signal, i.e., the ratio of the fluorescence intensity of the fluorescein acceptor (520 nm) and the terbium donor (495 nm) at the emission wavelength, was measured on an Envision plate reader, and the IC50 value was calculated based on this. The results of in vitro enzyme activity assay of the free base of the compound of the present disclosure are shown in Table 3: Table 3: In vitro enzyme activity test results of the compound of the present disclosure (IC50)

[5] = test system: IFNα-stimulated phosphorylated STAT1; assay: IFNα-stimulated phosphorylation STAT1 assay in hPBMC (flow cytometry, CD4+ T cells); type: cell-based, Human
Experimental: Human peripheral blood mononuclear cells (hPBMC) were seeded at a cell density of 1x10^5 cells/well and placed in an incubator at 37°C for 90 minutes. Then different concentrations of compounds were added to the cells, wherein the concentration range of each compound started from 2 µM, which was serially diluted 5-fold to obtain a total of 8 concentration gradients. The compounds and cells were incubated at 37 °C for 30 minutes. hPBMC were stimulated with IFN-a (1000 U/ml), and then the level of phosphorylated STAT1 in CD4+ T cells was detected by flow cytometry to evaluate the inhibitory activity of the compound on the IFN-α pathway. The results of the in vitro cell activity assay of the free base of the compound of the present disclosure are shown in Table 4: Table 4: In vitro cell activity test results of the compound of the present disclosure (IC50)

T1 sequence (P29597 575-869, species assumed): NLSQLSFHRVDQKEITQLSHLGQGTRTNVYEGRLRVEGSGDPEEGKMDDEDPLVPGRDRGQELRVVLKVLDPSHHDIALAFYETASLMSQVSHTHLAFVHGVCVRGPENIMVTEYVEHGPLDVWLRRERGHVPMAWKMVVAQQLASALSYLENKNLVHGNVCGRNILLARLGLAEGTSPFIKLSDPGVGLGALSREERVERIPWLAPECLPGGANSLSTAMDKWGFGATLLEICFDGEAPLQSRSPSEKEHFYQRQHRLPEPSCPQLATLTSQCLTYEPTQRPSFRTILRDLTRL

[2H]C([2H])([2H])CC(=O)c1cnc(NC(=O)C2CC2)cc1Nc1cccc(-c2cnc(N=S(C)(C)=O)cn2)c1OC [Compound of formula (I)]
AUC(0-t) [1]: 66.5 µM·h
Cmax [1]: 16.8 µM
Tmax [1]: 120 min
bioavailability [1]: 103%
AUC(0-t) [2]: 231 µM·h
Cmax [2]: 44.5 µM
Tmax [2]: 45 min
bioavailability [2]: 65%
AUC(0-t) [3]: 76 µM·h
Cmax [3]: 32.4 µM
Tmax [3]: 30 min
bioavailability [3]: 81%

[2H]C([2H])([2H])CC(=O)c1cnc(NC(=O)C2CC2)cc1Nc1cccc(-c2cnc(N=S(C)(C)=O)cn2)c1OC
IC50 ([4]; HTRF, 90 minutes at room temperature): 0.04 nM
inhibitory activity against Tyk2 JH2 ([4]; conclusion in words): strong inhibitory activity
IC50 ([5]; Homo sapiens, CD4+ T, read-out: IFNα-stimulated phosphorylated STAT1 (IC50 nM)): 1.1 nM
Tyk2-related cellular activity on IFNα-stimulated phosphorylated STAT1 ([5]; conclusion in words): strong Tyk2-related cellular activity
